# Results taken from patent publication US10576078B2 (Council of Scientific & Industrial Research, priority 2017, dated 2020).
# How the values were obtained:
# Type in all cases: cell-based, Human
# [1] = tested on: stat5b, HIF-1α, HIF-2α and CITED2 transcripts in CD34+ cells from imatinib-resistant patients; experiment: QRT-PCR of stem cell factors in CD34+ CML cells
# Experimental: CD34^+ cells isolated from IMT-resistant patients (n=3) were treated with CFZ (5 μM, 24 h) and stat5b, HIF-1α, HIF-2α and CITED2 transcripts were assessed by QRT-PCR (in triplicates). ***p<0.0001.
# CD34+ cells were isolated from imatinib-resistant CP-CML cells as described above. Cells were then treated with vehicle (V; 0.1% DMSO) or CFZ (5 μM) for 24 h. Total RNA was isolated from CD34+ cells as described above, using TRI reagent. 2 μg total RNA was reverse transcribed using High-Capacity cDNA Reverse Transcription Kit (Applied Biosystems; Foster City, Calif.). Quantitative real-time PCRs (QRT-PCR) were performed on a LightCycler 480 System (Roche, Indianapolis, Ind.) using VeriQuest SYBR Green qPCR Master Mix (Affymetrix, Thermo Scientific). The QRT-PCR primers were designed using Universal ProbeLibrary Assay Design Center (Roche Life Science). Primer sequences (5′-3′) hSTAT5B-For-TGAAG […], hSTAT5B-Rev […] ACTG, hHIF-1α-For-[…], hHIF-1α-Rev-[…], hHIF-2α-For-[…], hHIF-2α-Rev-[…], hCITED-2-For-[…], hCITED-2-Rev-[…]. The data were analyzed by ΔΔCT method with GAPDH (GAPDH-For-[…], GAPDH-Rev-GCC […]) used as an internal control (FIG. 2F).
# [2] = tested on: chronic phase CML patient-derived mononuclear cells (CP-CML cells); experiment: Apoptosis by annexin V/PI staining in CP-CML cells; conditions: 5 μM, 48 h
# Description: FD; freshly diagnosed, Resp; imatinib-responder, Res; imatinib-resistant.
# Peripheral blood samples were obtained from chronic phase (CP-CML), accelerated phase (AP) or blast crisis (BC) CML patients (BCR− ABL+ v e freshly diagnosed, Imatinib-resistant or responders), and healthy donors from King George's Medical University (Clinical Hematology and Medical Oncology division), Lucknow, following ethical approval (Approval No: 1638/R. Cell-12) as per institutional ethical guidelines after written consent. Peripheral blood mononuclear cells (PBMC) were isolated on Percoll (Sigma) density gradient by centrifugation. Briefly, the blood was collected in vials coated with trisodium citrate buffer. Cells were then centrifuged 700 g for 10 min and plasma was removed. The pellet was resuspended in 6 ml Hank's balanced salt solution (HBSS; Invitrogen, Thermo Fisher Scientific), and then 2 ml of 6% Dextran in HBSS was added to it. Cells were then incubated at 37° C. for 30 min. The supernatant was then collected and centrifuged at 300 g for 5 min. The pellet was then resuspended in 2 ml HBSS supplemented with 0.18% glucose and loaded onto percoll gradient. PBMCs were then isolated by centrifugation.
# [3] = tested on: CD34+ population from CP-CML cells from imatinib-resistant patients; experiment: CD34+ count and apoptosis in CD34+ LSC population from imatinib-resistant CP-CML patients
# Experimental: CD34^+ population from CP-CML cells from imatinib-resistant patients (n=3) were individually purified using a CD34 microbead kit (Miltenyi Biotech) and were treated with 5 μM CFZ or salinomycin for 48 h. Cells were then divided into two groups. One group was assessed by immunostaining for CD34 and the other group was stained with annexin V/PI and the cells were then analyzed by flow-cytometry. Salinomycin was used as positive control. **p<0.01, ***p<0.0001.
# CD34^+ population from primary CP-CML cells from imatinib-resistant patients (n=3) were purified using a CD34 microbead kit. Cells were incubated with V or 2.5 μM CFZ for 96 h, stained with PE-conjugated anti-CD34 and FITC-conjugated anti-CD38 antibodies for specific subpopulation and apoptosis was analyzed by APC labeled annexin V and propidium iodide (PI) staining followed by flow-cytometry (FACSCalibur, BD biosciences). *p<0.05, **p<0.01.
# The observed purity was 80-90%.
# For assessing apoptosis in the CD34^+ population from CML patients, these cells were then treated as indicated in the figures and figure descriptions (FIG. 2A). At the end of treatment, cells from each treatment group were divided in two separate tubes. One group was stained with CD34-PE and the other group was stained with Annexin V FITC/PI antibodies.
# For assessing apoptosis in CD34^+ CD38^+ and CD34^+ CD38^− subpopulations from CML patients, CD34^+ cells were isolated as above and were treated with V or 2.5 μM CFZ for 96 h and then stained with PE-conjugated anti-CD34, FITC-conjugated anti-CD38 antibodies for 30 min and then stained with Annexin V-APC/PI at room temperature for 15 minutes and then were gated into CD34^+38^+ and CD34^+38^− populations and apoptosis was assessed in a FACSAria flow cytometer.
# [4] = tested on: K562 cells; experiment: TUNEL assay in K562 cells; conditions: CFZ 5 μM, 48 h
# Experimental: K562 cells were treated with CFZ for 48 h and TUNEL staining was performed followed by fluorescent microscopy. Images are representative of two independent experiments (8 fields per group).
# [5] = CD34+ cells from imatinib-resistant patients, CFZ 5 μM, 24 h
smiles,measurement,setting,value
"CC(C)/N=c1\cc2n(-c3ccc(Cl)cc3)c3ccccc3nc-2cc1Nc1ccc(Cl)cc1 [CFZ, Clofazimine]",CITED2 transcript,[1]; [5],reduced
same,HIF-1α transcript,[1]; [5],reduced
same,HIF-2α transcript,[1]; [5],reduced
same,stat5b transcript,[1]; [5],reduced
same,stat5 mRNA expression,[1]; FIG. 2F,suppressed
same,efficacy of apoptosis induction,[2]; CP-CML cells from freshly diagnosed patients,comparable to imatinib
same,efficacy of apoptosis induction,[2]; CP-CML cells from imatinib responders,comparable to imatinib
same,efficacy of apoptosis induction versus dasatinib,[2]; CP-CML cells harboring BCR-ABL mutation F359V,higher
same,efficacy of apoptosis induction versus dasatinib,[2]; CP-CML cells harboring BCR-ABL mutation M244V,comparable
same,efficacy of apoptosis induction versus dasatinib,[2]; CP-CML cells harboring BCR-ABL mutation M351T,higher
same,efficacy of apoptosis induction versus dasatinib,[2]; CP-CML cells harboring BCR-ABL mutation Y253H,higher
same,efficacy of apoptosis induction,[2]; imatinib-resistant CP-CML cells,higher than imatinib and dasatinib
same,apoptosis in committed CD34+38+ progenitor cells,"[3]; 2.5 μM CFZ, 96 h, n=3",induced apoptosis
same,apoptosis in primitive CD34+38− progenitor cells,"[3]; 2.5 μM CFZ, 96 h, n=3",induced apoptosis
same,apoptosis in CD34+ LSC population,"[3]; imatinib-resistant CP-CML patients, n=3, 5 μM, 48 h",induced apoptosis
same,CD34+ population,"[3]; imatinib-resistant patients, 5 μM, 48 h",reduces
same,apoptosis as determined by TUNEL assay,[4],induces apoptosis
